Test results reported in patent US20090306142A1, “METHODS TO CONTROL QoI-RESISTANT FUNGAL PATHOGENS” (DOW AGROSCIENCES LLC, priority 2008, published 2009).
Values after ≈ are worked out from the molar mass of the structure shown. Where two headings read alike, the source gives them in different places.

Experiments:
[1] = tested on: SEPTTR field isolate LARS 15; experiment: in vitro fungitoxicity, microtiter plate assay, strobilurin-sensitive isolate; conditions: for LARS 15 EC50: isolate LARS 15, sensitive to strobilurins; for activity against the LARS 15 strain (in words): isolate LARS 15
[2] = tested on: SEPTTR field isolate R2004-6 (G143A mutation in cytochrome b)
[3] = tested on: QoI-resistant SEPTTR isolates; experiment: in-planta control of SEPTTR on wheat cultivar Riband, QoI-resistant isolates; assay type: in vivo, Septoria tritici; conditions: visual inspection 21 days after inoculation
[4] = tested on: SEPTTR field isolate R2004-6 (G143A mutation in cytochrome b); experiment: in vitro fungitoxicity, microtiter plate assay, strobilurin-resistant isolate; conditions: for activity against the QoI-resistant strain R2004-6 (in words): isolate R2004-6; for R2004-6 EC50: isolate R2004-6, G143A, resistant to strobilurins
[5] = tested on: QoI-sensitive SEPTTR isolates ('WT'); experiment: in vitro fungitoxicity, panel of SEPTTR isolates, QoI-sensitive; conditions: for mean EC50, QoI-Sensitive (n = 17): mean of 17 QoI-sensitive isolates
Description: (§1) A panel of 31 SEPTTR isolates was used in in vitro fungitoxicity experiments. Most of the used isolates were isolated from wheat in the UK from 2001 to 2005.

[6] = tested on: QoI-resistant SEPTTR isolates ('G143A'); experiment: in vitro fungitoxicity, panel of SEPTTR isolates, QoI-resistant; conditions: for mean EC50, QoI-resistant (n = 14): mean of 14 QoI-resistant isolates; for fold less active against QoI-resistant than QoI-sensitive isolates: resistant vs sensitive
Description: as §1

| Compound | LARS 15 EC50 [1] [ppm] | R2004-6 EC50 [2] [ppm] | R2004-6 EC50 [4] [ppm] | other results |
| --- | --- | --- | --- | --- |
| C[C@@]1(c2ccc(Oc3ccccc3)cc2)OC(=O)N(Nc2ccccc2)C1=O (racemic) [Famoxadone, famoxadone] | 0.136 | >5 | – | – |
| COc1ccnc(C(=O)N[C@H]2COC(=O)[C@H](Cc3ccccc3)[C@@H](OC(=O)C(C)C)[C@H](C)OC2=O)c1OCOC(=O)C(C)C [Compound 1] | 0.169 | – | 0.122 | breaking rate for control of SEPTTR infection ([3]; isolate G3-03, QoI R): 0.9 ppm; breaking rate for control of SEPTTR infection ([3]; isolate TwistB-02, QoI R): 0.3 ppm; activity against the LARS 15 strain (in words) [1]: highly active; activity against the QoI-resistant strain R2004-6 (in words) [4]: highly active; mean EC50, QoI-Sensitive (n = 17) [5]: 0.035 µg/mL; mean EC50, QoI-resistant (n = 14) [6]: 0.021 µg/mL; fold more active against QoI-resistant than QoI-sensitive isolates ([6]; ratio of mean EC50 values, sensitive vs resistant): 1.7 fold |
| CCC1(C)CC(NC(=O)c2cccc(NC=O)c2O)CC(C)(C)C1 (stereo not shown) [Compound 2] | 0.0006 | <0.0005 | – | – |
| COc1ccnc(C(=O)NC2CCCC(Sc3ccc(C(C)(C)C)cc3)C2)c1O (stereo not shown) [Compound 3] | 0.049 | 0.059 | – | – |
| antimycin A | 0.021 | – | 0.011 | – |
| UK2A [UK-2A] | 0.037 | – | 0.029 | activity against the LARS 15 strain (in words) [1]: highly active; activity against the QoI-resistant strain R2004-6 (in words) [4]: highly active |
| CO/N=C(/C(=O)OC)c1ccccc1COc1ccccc1C [Kresoxim-methyl, kresoxim-methyl] | <0.005 | >5 | – | – |
| Fc1ccc([C@]2(Cn3cncn3)O[C@H]2c2ccccc2Cl)cc1 (racemic) [Epoxiconazole, epoxiconazole] | – | – | – | EC50 ([5]; Zymoseptoria tritici, read-out: mean EC50, QoI-Sensitive (n = 17)): 0.351 µg/mL (≈ 1.06 µM); EC50 ([6]; Zymoseptoria tritici, read-out: mean EC50, QoI-resistant (n = 14)): 0.589 µg/mL (≈ 1.79 µM); fold less active against QoI-resistant than QoI-sensitive isolates ([6]; ratio of mean EC50 values): 1.7 fold |
| CO/C=C(/C(=O)OC)c1ccccc1Oc1cc(Oc2ccccc2C#N)ncn1 [Azoxystrobin, azoxystrobin] | 0.011 | – | 3.00 | mean EC50, QoI-Sensitive (n = 17) [5]: 0.057 µg/mL; mean EC50, QoI-resistant (n = 14) [6]: 9.077 µg/mL; fold less active against QoI-resistant than QoI-sensitive isolates ([6]; ratio of mean EC50 values): 160 fold |
